This note sets out measurements from US11123337B2, “4-methylsulfonyl-substituted piperidine urea compounds” (MYOKARDIA, INC., priority 2015, dated 2021).

For the experiment, the target named is bovine cardiac myosin (Bos taurus, UniProt Q9BE39). The experiment in a line: Myosin activation assay (PK/LDH-coupled ATPase, bovine cardiac myofibrils). Conditions: AC20 = concentration at which total response is increased by twenty percent. The class given is biochemical. Here is the method: Small molecule agents were assessed for their ability to activate the enzymatic activity of bovine cardiac myosin using a biochemical assay that couples the release of ADP (adenosine diphosphate) from cardiac myosin to an enzymatic coupling system consisting of pyruvate kinase and lactate dehydrogenase (PK/LDH) and monitoring the absorbance decrease of NADH (at 340 nm) as a function of time. PK converts ADP to ATP (adenosine triphosphate) by converting PEP (phosphoenolpyruvate) to pyruvate. Pyruvate is then converted to lactate by LDH by converting NADH (nicotinamide adenine dinucleotide) to NAD (oxidized nicotinamide adenine dinucleotide). The source of cardiac myosin was from bovine heart in the form of skinned myofibrils. Prior to testing small molecule agents, the bovine myofibrils were assessed for their calcium responsiveness and the calcium concentration that achieves either a 50% (pCa50 or pCa=˜6) or <5% (pCa=10) activation of the myofibril system was chosen as the final condition for assessing the activation activity of the small molecule agents. All enzymatic activity was measured in a buffered solution containing 12 mM PIPES (piperazine-N,N′-bis(2-ethanesulfonic acid), 2 mM magnesium chloride at pH 6.8 (PM12 buffer). Final assay conditions were 1 mg/mL of bovine cardiac myofibrils, 0.4 mM PK/LDH, 50 uM ATP, 0.1 mg/mL BSA (bovine serum albumin), 10 ppm antifoam, 2 mM BME, 0.5 mM NADH, 1.5 mM PEP at the desired free calcium concentration required to achieve either 50% or <5% activation of the myofibrils.
Sequence of bovine cardiac myosin (Q9BE39 whole entry): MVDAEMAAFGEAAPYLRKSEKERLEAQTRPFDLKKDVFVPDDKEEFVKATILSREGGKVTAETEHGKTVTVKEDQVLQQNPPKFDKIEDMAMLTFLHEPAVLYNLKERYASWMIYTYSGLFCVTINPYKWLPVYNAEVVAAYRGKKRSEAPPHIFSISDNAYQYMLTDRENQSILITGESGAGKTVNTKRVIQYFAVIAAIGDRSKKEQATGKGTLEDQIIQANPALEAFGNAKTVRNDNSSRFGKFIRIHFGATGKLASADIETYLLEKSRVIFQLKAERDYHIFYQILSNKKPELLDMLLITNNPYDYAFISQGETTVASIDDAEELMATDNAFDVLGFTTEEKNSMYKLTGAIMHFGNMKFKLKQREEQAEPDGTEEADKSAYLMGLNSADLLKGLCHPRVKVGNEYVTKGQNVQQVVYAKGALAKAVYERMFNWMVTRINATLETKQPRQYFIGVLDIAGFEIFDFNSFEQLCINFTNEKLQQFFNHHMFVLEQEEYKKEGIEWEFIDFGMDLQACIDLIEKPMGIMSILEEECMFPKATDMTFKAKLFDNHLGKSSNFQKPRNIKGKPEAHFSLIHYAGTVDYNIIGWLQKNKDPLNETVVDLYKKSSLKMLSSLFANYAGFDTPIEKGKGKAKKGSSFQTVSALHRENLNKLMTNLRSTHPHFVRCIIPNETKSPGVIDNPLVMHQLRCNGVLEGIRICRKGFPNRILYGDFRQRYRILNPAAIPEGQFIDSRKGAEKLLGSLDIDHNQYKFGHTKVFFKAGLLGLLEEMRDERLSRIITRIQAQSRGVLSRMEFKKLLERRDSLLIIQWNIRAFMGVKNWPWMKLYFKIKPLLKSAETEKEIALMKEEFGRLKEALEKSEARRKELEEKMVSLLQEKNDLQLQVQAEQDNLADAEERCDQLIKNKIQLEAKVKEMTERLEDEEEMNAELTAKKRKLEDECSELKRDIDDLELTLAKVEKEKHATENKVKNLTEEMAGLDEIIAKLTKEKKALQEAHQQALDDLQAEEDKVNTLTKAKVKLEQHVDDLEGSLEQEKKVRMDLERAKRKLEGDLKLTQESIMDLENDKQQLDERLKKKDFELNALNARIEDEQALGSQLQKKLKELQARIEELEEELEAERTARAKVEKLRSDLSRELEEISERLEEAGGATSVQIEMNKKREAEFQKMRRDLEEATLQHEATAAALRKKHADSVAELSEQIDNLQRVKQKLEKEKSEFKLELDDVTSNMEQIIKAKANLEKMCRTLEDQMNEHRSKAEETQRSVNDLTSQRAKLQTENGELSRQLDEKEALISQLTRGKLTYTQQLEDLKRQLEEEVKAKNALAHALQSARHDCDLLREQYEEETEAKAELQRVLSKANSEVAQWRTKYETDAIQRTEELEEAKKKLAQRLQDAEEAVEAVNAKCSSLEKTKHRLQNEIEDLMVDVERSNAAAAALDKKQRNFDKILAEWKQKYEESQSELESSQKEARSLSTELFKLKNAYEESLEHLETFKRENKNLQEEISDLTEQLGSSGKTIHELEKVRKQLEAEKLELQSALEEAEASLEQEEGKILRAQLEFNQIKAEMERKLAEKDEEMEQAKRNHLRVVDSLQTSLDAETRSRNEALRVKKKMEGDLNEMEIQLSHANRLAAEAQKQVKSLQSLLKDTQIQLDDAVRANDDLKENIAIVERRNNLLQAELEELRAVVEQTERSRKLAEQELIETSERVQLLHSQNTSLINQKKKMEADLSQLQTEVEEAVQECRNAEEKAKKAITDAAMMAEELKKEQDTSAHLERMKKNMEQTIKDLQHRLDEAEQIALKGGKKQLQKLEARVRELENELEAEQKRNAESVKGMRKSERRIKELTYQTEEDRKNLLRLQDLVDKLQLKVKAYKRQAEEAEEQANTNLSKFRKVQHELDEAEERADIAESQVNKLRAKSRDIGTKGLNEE
Sequence of bovine cardiac myosin (P85100 whole entry partner): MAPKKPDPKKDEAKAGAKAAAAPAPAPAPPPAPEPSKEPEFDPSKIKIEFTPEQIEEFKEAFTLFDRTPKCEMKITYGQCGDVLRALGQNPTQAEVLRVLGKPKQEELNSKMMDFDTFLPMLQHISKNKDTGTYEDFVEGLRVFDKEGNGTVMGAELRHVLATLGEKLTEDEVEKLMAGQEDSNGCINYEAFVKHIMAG
Sequence of bovine cardiac myosin (Q3SZE5 whole entry partner): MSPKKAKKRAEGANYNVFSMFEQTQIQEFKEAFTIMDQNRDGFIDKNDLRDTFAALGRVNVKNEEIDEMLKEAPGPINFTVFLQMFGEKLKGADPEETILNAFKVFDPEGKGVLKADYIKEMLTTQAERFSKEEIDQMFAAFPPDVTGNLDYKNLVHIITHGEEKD
A dilution series of compound was created in DMSO such that the final desired concentration of compound would be achieved in a volume of […] with a fixed DMSO concentration of 3.3% (v/v). Typically a 1 μL of the dilution series was added to a 384 well plate to achieve a 10 point dose response. Following the addition of 14 μL of a solution containing bovine cardiac myofibrils, PK/LDH and a solution of calcium (that achieved the desired activation), the enzymatic reaction was started with the addition of 15 μL of a solution containing ATP, PEP and NADH. The reaction progress was followed in a PerkinElmer Envision plate reader at ambient temperature using clear bottom plates. The plate reader was configured to read absorbance at 340 nm in kinetics mode for 15 minutes. Data were recorded as the slope of the absorbance response to time. The slopes of the absorbance response as a function of time were normalized to slopes on the plate containing DMSO. This normalized rate was then plotted as a function of small molecule concentration and the data was fitted to a four-parameter fit using EXCEL XLfit. The concentration at which the total response is increased by twenty or fifty percent is reported as AC20 or AC50.
On to `C[C@@H](O)c1cc(NC(=O)N2CCC(C(F)(F)S(=O)(=O)c3cn(C)nc3C(F)F)CC2)ccn1` [Compound 100, (R)-4-(((3-(difluoromethyl)-1-methyl-1H-pyrazol-4-yl)sulfonyl)difluoromethyl)-N-(2-(1-hydroxyethyl)pyridin-4-yl)piperidine-1-carboxamide], for which the “Myosin Activation (AC20)” value is listed as “+ (+ represents myosin activation value AC20 > 5 μM)”.

As for `Cn1nccc1S(=O)(=O)C(C)(F)C1CCN(C(=O)Nc2ccon2)CC1` (centres unmarked) [Compound 280, 4-(1-fluoro-1-((1-methyl-1H-pyrazol-5-yl)sulfonyl)ethyl)-N-(isoxazol-3-yl)piperidine-1-carboxamide], the “Myosin Activation (AC20)” value is given as “+ (+ represents myosin activation value AC20 > 5 μM)”.

Regarding `CC(C)(C1CCN(C(=O)Nc2cnns2)CC1)S(=O)(=O)c1ccc(C#N)cc1` [Compound 179, 4-(2-((4-cyanophenyl)sulfonyl)propan-2-yl)-N-(1,2,3-thiadiazol-5-yl)piperidine-1-carboxamide], the “Myosin Activation (AC20)” value is reported as “+++ (+++ represents myosin activation value AC20 < 2 μM)”.

For the compound `Cc1ccc(NC(=O)N2CCC(C(C)(F)S(=O)(=O)c3cccc(F)c3)CC2)cn1` (centres unmarked) [Compound 295, 4-(1-fluoro-1-((3-fluorophenyl)sulfonyl)ethyl)-N-(6-methylpyridin-3-yl)piperidine-1-carboxamide], the “Myosin Activation (AC20)” value is on record as “+ (+ represents myosin activation value AC20 > 5 μM)”.

Take `Cc1cc(NC(=O)N2CCC([C@](C)(F)S(=O)(=O)c3cn(C)nc3C(F)F)CC2)ccn1` [Compound 233, (R)-4-(1-((3-(difluoromethyl)-1-methyl-1H-pyrazol-4-yl)sulfonyl)-1-fluoroethyl)-N-(2-methylpyridin-4-yl)piperidine-1-carboxamide]: the “Myosin Activation (AC20)” value is reported as “+++ (+++ represents myosin activation value AC20 < 2 μM)”.

For `C[C@](F)(C1CCN(C(=O)Nc2ccon2)CC1)S(=O)(=O)c1ccc(OC(F)F)nc1` [Compound 312, (R)-4-(1-((6-(difluoromethoxy)pyridin-3-yl)sulfonyl)-1-fluoroethyl)-N-(isoxazol-3-yl)piperidine-1-carboxamide], the “Myosin Activation (AC20)” value is recorded as “+++ (+++ represents myosin activation value AC20 < 2 μM)”.

Regarding `O=C(Nc1cnns1)N1CCC(C(F)(F)S(=O)(=O)c2cccc(F)c2)CC1` [Compound 44, 4-(difluoro((3-fluorophenyl)sulfonyl)methyl)-N-(1,2,3-thiadiazol-5-yl)piperidine-1-carboxamide], the “Myosin Activation (AC20)” value is reported as “+ (+ represents myosin activation value AC20 > 5 μM)”.

As to `O=C(Nc1ccns1)N1CCC(C2(S(=O)(=O)c3cc(F)cc(F)c3)CC2)CC1` [Compound 203, 4-(1-((3,5-difluorophenyl)sulfonyl)cyclopropyl)-N-(isothiazol-5-yl)piperidine-1-carboxamide], the “Myosin Activation (AC20)” value was “+++ (+++ represents myosin activation value AC20 < 2 μM)”.

As to `N#Cc1ccccc1S(=O)(=O)C(F)(F)C1CCN(C(=O)Nc2ccnnc2)CC1` [Compound 54, 4-(((2-cyanophenyl)sulfonyl)difluoromethyl)-N-(pyridazin-4-yl)piperidine-1-carboxamide], the “Myosin Activation (AC20)” value was “++ (++ represents myosin activation value AC20 from 2 μM-5 μM)”.

As to `Cn1cc(S(=O)(=O)C(C)(C)C2CCN(C(=O)Nc3cccnc3)CC2)c(C(F)F)n1` [Compound 118, 4-(2-((3-(difluoromethyl)-1-methyl-1H-pyrazol-4-yl)sulfonyl)propan-2-yl)-N-(pyridin-3-yl)piperidine-1-carboxamide], the “Myosin Activation (AC20)” value was “+++ (+++ represents myosin activation value AC20 < 2 μM)”.

Regarding `Cc1cc(S(=O)(=O)C(F)(F)C2CCN(C(=O)Nc3ccnnc3)CC2)n(C2CC2)n1` [Compound 90, 4-(((1-cyclopropyl-3-methyl-1H-pyrazol-5-yl)sulfonyl)difluoromethyl)-N-(pyridazin-4-yl)piperidine-1-carboxamide], the “Myosin Activation (AC20)” value was “+ (+ represents myosin activation value AC20 > 5 μM)”.
